In patent publication US20160222014A1, “COMPOUNDS FOR REGULATING FAK AND/OR SRC PATHWAYS” (ASANA BIOSCIENCES, LLC, priority 2013, published 2016):

Columns and labels:
JAK2 = JAK2 (Homo sapiens, UniProt O60674); experiment: JAK2 biochemical potency; conditions: read-out: JAK2 HTRF IC50
recombinant human FAK1 = target: T1, recombinant human FAK1 (Homo sapiens, UniProt Q05397); experiment: FAK1 HTRF assay; format: biochemical
T1 construct: fused on or other part: N-terminal 6xHis tag
In short: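 His-tagged human FAK1 (residues 692–end, Sf9-expressed), 10 nM final, with 0.5 μM biotinylated gastrin-precursor Tyr87 peptide and a 10 μM final reagent in pH 7.4 buffer, 45 min at rt. Detection used Eu anti-pTyr antibody plus SA-APC (665/620 nm). Compounds top concentration 10 μM; IC50 from % inhibition.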

AURKB (Aurora B) enzyme = target: T2, AURKB (Aurora B) enzyme (Homo sapiens, UniProt Q96GD4); experiment: Aurora B HTRF assay; format: biochemical; conditions: read-out: AuroraB IC50
T2 construct: purchased Invitrogen PVR 130
In short: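 HTRF kinase assay with 5 nM Aurora B and 50 nM ULight-PLK (Ser137) peptide, with a reagent at 30 μM final; 1 h at rt. Reaction stopped with EDTA, and phospho-peptide detected with 2 nM Eu-anti-P-PLK(Ser137) antibody after 1 h at rt, read as HTRF.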

Recombinant Src enzyme = target: T3, Recombinant Src enzyme (Homo sapiens, UniProt P12931); experiment: Src HTRF assay; format: biochemical
T3 construct: purchased Millipore 14-326; host or cells: Sf21 insect cells
In short: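 Sf21-expressed recombinant Src at 5 nM final with biotinylated N-terminally tagged Tyk2 peptide substrate at 0.5 μM final; a component freshly made in enzyme assay buffer pH7.4 was used at 10 μM final. Buffer, supplements, compound handling and procedure as in the FAK HTRF assay; dasatinib included.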

[1] = target: T4, FAK phosphorylated at Y397 in HEK-FAK cell line overexpressing human FL FAK protein (Homo sapiens, UniProt Q05397); experiment: Cell based assay, Phospho-FAK ELISA; conditions: HEK stb; read-out: pFAK EC50 (μM) HEK stb
T4 construct: expressed in transfected cells
In short: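 Stable HEK293 line overexpressing full-length human FAK, kept under 0.8 mg/mL Zeocin. In lysates, FAK Y397 autophosphorylation was measured by sandwich ELISA: total-FAK capture antibody, biotinylated pY397-specific detection antibody, streptavidin-HRP with TMB substrate.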

T3 sequence (P12931 whole entry): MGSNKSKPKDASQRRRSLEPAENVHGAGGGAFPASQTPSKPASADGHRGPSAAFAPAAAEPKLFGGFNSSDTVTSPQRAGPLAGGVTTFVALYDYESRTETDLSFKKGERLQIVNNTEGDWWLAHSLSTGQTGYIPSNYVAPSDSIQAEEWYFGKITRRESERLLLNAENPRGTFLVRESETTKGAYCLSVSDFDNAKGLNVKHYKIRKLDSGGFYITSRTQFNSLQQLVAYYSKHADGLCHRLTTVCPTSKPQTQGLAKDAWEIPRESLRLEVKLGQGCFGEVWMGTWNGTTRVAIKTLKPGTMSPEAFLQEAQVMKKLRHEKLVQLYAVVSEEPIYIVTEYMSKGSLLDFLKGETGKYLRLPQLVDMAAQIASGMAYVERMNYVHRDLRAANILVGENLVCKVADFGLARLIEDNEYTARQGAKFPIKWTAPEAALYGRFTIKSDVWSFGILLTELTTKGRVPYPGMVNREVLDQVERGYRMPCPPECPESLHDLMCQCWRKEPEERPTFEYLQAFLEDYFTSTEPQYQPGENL
T4 sequence (Q05397 whole entry): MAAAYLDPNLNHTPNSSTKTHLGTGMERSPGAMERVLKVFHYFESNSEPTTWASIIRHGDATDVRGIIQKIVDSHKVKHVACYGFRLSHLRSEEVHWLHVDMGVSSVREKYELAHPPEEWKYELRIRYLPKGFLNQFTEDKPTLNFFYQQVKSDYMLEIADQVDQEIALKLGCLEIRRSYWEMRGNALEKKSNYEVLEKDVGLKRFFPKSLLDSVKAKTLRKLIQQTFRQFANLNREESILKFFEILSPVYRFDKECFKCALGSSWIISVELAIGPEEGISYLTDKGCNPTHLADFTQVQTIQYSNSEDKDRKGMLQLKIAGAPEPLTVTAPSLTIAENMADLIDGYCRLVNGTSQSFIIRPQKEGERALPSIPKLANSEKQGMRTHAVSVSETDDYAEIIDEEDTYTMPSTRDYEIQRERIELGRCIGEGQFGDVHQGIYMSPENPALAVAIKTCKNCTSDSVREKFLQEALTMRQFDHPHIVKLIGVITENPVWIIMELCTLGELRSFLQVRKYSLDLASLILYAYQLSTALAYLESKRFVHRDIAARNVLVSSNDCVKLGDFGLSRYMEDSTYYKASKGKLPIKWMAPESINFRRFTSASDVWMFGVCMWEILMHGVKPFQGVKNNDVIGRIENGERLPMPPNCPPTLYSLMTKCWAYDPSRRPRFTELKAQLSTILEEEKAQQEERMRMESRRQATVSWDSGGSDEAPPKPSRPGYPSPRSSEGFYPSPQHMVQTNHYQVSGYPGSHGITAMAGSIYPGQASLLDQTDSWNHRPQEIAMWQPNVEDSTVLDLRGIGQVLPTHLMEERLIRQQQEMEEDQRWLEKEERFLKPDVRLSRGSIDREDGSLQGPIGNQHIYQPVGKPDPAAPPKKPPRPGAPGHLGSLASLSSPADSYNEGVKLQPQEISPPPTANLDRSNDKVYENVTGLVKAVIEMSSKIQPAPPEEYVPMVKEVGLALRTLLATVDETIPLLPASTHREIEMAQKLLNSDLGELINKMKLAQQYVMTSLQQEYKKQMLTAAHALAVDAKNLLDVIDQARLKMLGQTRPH
T1 sequence (Q05397 422-680 limits assumed): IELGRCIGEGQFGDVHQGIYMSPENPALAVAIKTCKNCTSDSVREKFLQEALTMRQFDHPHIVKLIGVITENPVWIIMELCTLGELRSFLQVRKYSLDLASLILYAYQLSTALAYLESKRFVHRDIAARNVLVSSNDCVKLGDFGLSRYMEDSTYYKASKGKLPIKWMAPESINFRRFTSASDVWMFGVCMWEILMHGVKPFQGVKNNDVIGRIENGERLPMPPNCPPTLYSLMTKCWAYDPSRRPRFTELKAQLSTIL
Chain of JAK2 (O60674 whole entry, species assumed): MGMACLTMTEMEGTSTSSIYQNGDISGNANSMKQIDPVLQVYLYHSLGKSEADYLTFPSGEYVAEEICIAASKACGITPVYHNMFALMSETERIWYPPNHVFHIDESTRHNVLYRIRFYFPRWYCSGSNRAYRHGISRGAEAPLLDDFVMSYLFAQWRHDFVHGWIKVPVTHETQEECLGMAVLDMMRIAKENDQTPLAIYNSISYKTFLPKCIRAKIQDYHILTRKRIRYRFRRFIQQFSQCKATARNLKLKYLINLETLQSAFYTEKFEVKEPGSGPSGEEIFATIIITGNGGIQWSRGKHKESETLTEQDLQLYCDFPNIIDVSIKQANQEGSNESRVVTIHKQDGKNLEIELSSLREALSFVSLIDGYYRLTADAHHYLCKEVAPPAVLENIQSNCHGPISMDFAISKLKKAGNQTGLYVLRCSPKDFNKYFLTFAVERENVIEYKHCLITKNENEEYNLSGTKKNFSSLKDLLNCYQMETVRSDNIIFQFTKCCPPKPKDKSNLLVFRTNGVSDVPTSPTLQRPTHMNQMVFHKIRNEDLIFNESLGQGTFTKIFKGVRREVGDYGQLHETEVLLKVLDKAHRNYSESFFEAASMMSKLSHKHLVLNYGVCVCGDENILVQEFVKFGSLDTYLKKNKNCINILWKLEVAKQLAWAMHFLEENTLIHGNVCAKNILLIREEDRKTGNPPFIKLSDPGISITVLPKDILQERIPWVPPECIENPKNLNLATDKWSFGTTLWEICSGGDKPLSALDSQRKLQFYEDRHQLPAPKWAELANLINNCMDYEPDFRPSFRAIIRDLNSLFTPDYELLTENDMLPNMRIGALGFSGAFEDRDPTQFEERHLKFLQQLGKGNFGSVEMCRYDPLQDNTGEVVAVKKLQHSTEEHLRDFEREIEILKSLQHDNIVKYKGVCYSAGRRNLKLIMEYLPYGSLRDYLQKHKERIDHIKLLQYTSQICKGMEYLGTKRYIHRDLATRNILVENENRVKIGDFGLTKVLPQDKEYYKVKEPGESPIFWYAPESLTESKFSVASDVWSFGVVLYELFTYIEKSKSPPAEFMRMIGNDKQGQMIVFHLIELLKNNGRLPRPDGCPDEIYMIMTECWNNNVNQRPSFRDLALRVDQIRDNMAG
T2 sequence (Q96GD4 whole entry): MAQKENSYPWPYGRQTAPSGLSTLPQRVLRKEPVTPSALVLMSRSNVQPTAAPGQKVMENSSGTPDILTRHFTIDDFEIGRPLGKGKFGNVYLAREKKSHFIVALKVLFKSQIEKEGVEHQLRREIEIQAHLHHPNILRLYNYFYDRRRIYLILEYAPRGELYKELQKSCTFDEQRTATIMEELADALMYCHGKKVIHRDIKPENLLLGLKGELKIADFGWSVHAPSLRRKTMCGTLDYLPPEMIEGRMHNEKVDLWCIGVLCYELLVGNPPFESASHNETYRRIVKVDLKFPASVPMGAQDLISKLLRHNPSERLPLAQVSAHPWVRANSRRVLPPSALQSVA

SMILES	IC50 (JAK2) [nM]	IC50 (recombinant human FAK1) [nM]	IC50 (AURKB (Aurora B) enzyme) [nM]	IC50 (Recombinant Src enzyme) [nM]	EC50 [1] [µM]
CN(c1ncccc1Cn1ccc2cnc(Nc3ccc4c(c3)CCC(=O)N4)nc21)S(C)(=O)=O [Example 5]	< 20	< 20	< 20	< 20	–
CC(=O)Nc1ccc(Nc2cc3c(ccn3S(=O)(=O)c3cccc(OC(F)(F)F)c3)cn2)cc1 [Example 54]	> 1000	–	–	> 1000	–
CC(=O)Nc1cccc(Nc2cc3c(ccn3S(=O)(=O)c3cccc(OC(F)(F)F)c3)cn2)c1 [Example 55]	> 1000	–	> 1000	> 1000	–
CC(=O)Nc1cccc(Nc2cc3c(ccn3S(=O)(=O)c3ccccc3OC(F)(F)F)cn2)c1 [Example 58]	> 1000	–	> 1000	> 1000	–
O=C1CCc2cc(Nc3cc4c(ccn4S(=O)(=O)c4ccccc4OC(F)(F)F)cn3)ccc2N1 [Example 59]	> 1000	–	> 1000	> 1000	> 1
CC(=O)Nc1ccc(Nc2cc3c(cn2)cnn3Cc2cccnc2N(C)S(C)(=O)=O)cc1 [Example 66]	> 1000	–	> 1000	> 1000	–
CC(=O)Nc1cccc(Nc2cc3c(cn2)c(C)nn3Cc2ccccc2OC(F)F)c1 [Example 78]	> 1000	> 1000	–	> 1000	–
Cc1nn(Cc2ccccc2OC(F)F)c2cc(Nc3ccc4c(c3)CCC(=O)N4)ncc12 [Example 80]	> 1000	–	> 1000	> 1000	–
CC(=O)Nc1ccc(Nc2cc3c(cn2)c(C)nn3Cc2ccccc2OC(F)F)cc1 [Example 81]	> 1000	> 1000	–	> 1000	–
CN(c1ccccc1Cn1ccc2cnc(Nc3ccc(N4CCOCC4)cc3)nc21)S(C)(=O)=O [Example 111]	< 20	< 20	–	–	> 1
O=S(=O)(c1ccccc1OC(F)(F)F)n1ccc2cnc(Nc3ccc(N4CCOCC4)cc3)cc21 [Example 113]	> 1000	–	< 20	> 1000	–
O=c1[nH]c2ccc(Nc3cc4c(ccn4S(=O)(=O)c4ccccc4OC(F)(F)F)cn3)cc2[nH]1 [Example 118]	> 1000	< 20	< 20	> 1000	–
N#Cc1ccccc1S(=O)(=O)n1ccc2cnc(Nc3ccc(N4CCNCC4)cc3)nc21 [Example 185]	< 20	< 20	< 20	–	> 1
O=S(=O)(c1cccc2cccnc12)n1ccc2cnc(Nc3ccc(N4CCNCC4)c(F)c3)nc21 [Example 194]	< 20	< 20	< 20	< 20	–
Cc1cc(Nc2ncc3ccn(Cc4cccnc4N(C)S(C)(=O)=O)c3n2)ccc1N1CCNCC1 [Example 197]	< 20	–	< 20	< 20	–
CN(C)S(=O)(=O)c1ccccc1Cn1ncc2cnc(Nc3ccc4c(c3)CCC(=O)N4)cc21 [Example 204]	< 20	< 20	< 20	–	> 1
CN(c1ncccc1Cn1ccc2cnc(Nc3ccc(C4=CCNCC4)cc3)nc21)S(C)(=O)=O [Example 206]	< 20	–	< 20	< 20	–
CN(C)S(=O)(=O)c1ccccc1Cn1ncc2cnc(Nc3ccc(N4CCNCC4)cc3)cc21 [Example 208]	< 20	–	–	–	> 1
C[C@@H]1CN(c2ccc(Nc3ncc4ccn(S(=O)(=O)c5cccc6cccnc56)c4n3)cc2)CCN1 [Example 213]	< 20	< 20	< 20	< 20	–
CN(c1ccccc1Cn1ccc2cnc(Nc3ccc(N4CCNCC4)cc3)nc21)S(C)(=O)=O [Example 214]	< 20	< 20	–	< 20	–
N#Cc1ccccc1S(=O)(=O)n1ncc2cnc(Nc3ccc4c(c3)CCC(=O)N4)nc21 [Example 220]	< 20	–	< 20	< 20	–
C[C@@H]1CN(c2ccc(Nc3ncc4ccn(S(=O)(=O)c5ccccc5C#N)c4n3)cc2)CCN1 [Example 243]	< 20	–	< 20	–	> 1

SMILES	IC50 (JAK2) [nM]	IC50 (recombinant human FAK1) [nM]	IC50 (AURKB (Aurora B) enzyme) [nM]	IC50 (Recombinant Src enzyme) [nM]	EC50 [1] [µM]
C[C@H]1CN(c2ccc(Nc3ncc4ccn(S(=O)(=O)c5cccc(C#N)c5)c4n3)cc2)CCN1 [Example 306]	< 20	–	< 20	–	> 1
O=S(=O)(c1cccc2cccnc12)n1ccc2cnc(Nc3ccc(N4CCN(CCO)CC4)cc3)nc21 [Example 311]	< 20	< 20	< 20	< 20	–
N#Cc1ccccc1S(=O)(=O)n1cc(F)c2cnc(Nc3ccc(N4CCNCC4)cc3)nc21 [Example 319]	< 20	< 20	< 20	–	–
C[C@H]1CNCCN1c1ccc(Nc2ncc3ccn(Cc4cccnc4N(C)S(C)(=O)=O)c3n2)cc1 [Example 320]	< 20	–	–	–	> 1
COc1cc(N2CCNCC2)ccc1Nc1ncc2ccn(S(=O)(=O)c3cccc4cccnc34)c2n1 [Example 327]	> 1000	< 20	< 20	> 1000	–
COc1cc(Nc2cc3c(ccn3S(=O)(=O)c3cccc4cccnc34)cn2)ccc1N1CCNCC1 [Example 328]	> 1000	< 20	< 20	–	–
O=S(=O)(c1cccc2cccnc12)n1ccc2cnc(Nc3ccc(N4CC5CC4CN5)cc3)cc21 (stereo not shown) [Example 329]	> 1000	< 20	< 20	> 1000	–
COc1ccccc1S(=O)(=O)n1ccc2cnc(Nc3ccc(N4CCNCC4)cc3)nc21 [Example 333]	< 20	< 20	< 20	–	–
COc1cc(N2CCNCC2)ccc1Nc1ncc2ccn(S(=O)(=O)c3ccccc3C#N)c2n1 [Example 336]	> 1000	< 20	–	> 1000	–
COc1cc(N2CCNCC2)ccc1Nc1ncc2ccn(Cc3cccnc3N(C)S(C)(=O)=O)c2n1 [Example 337]	> 1000	< 20	–	> 1000	–
COc1cc(N2CCNCC2)ccc1Nc1cc2c(cn1)cnn2S(=O)(=O)c1cccc2cccnc12 [Example 338, N-(2-methoxy-4-(piperazin-1-yl)phenyl)-1-(quinolin-8-ylsulfonyl)-1H-pyrazolo[4,3-c]pyridin-6-amine]	> 1000	< 20	–	> 1000	< 0.02
COc1cc(N2CCN(CCO)CC2)ccc1Nc1ncc2ccn(S(=O)(=O)c3cccc4cccnc34)c2n1 [Example 347]	> 1000	< 20	–	> 1000	–
COc1cc(N2CCNCC2)ccc1Nc1cc2c(ccn2S(=O)(=O)c2ccccc2C#N)cn1 [Example 348]	> 1000	< 20	–	> 1000	–
COc1cc(N2CCC(O)CC2)ccc1Nc1ncc2ccn(S(=O)(=O)c3cccc4cccnc34)c2n1 [Example 356]	> 1000	< 20	< 20	> 1000	–
Cc1cc(S(=O)(=O)n2ccc3cnc(Nc4ccc(N5CCNCC5)cc4)nc32)c2ncccc2c1 [Example 357]	< 20	< 20	< 20	–	–
O=S(=O)(c1cccc2cccnc12)n1ccc2cnc(Nc3ccc(N4CCNCC4)cc3OC3CCC3)nc21 [Example 358]	> 1000	> 1000	–	> 1000	> 1
COc1cc(Nc2cc3c(ccn3S(=O)(=O)c3ccccc3C#N)cn2)ccc1N1CCNCC1 [Example 391]	> 1000	< 20	< 20	–	–
COc1cc(N2CCNCC2)ccc1Nc1ncc2c(n1)N(S(=O)(=O)c1cccc3cccnc13)CC2(C)C [Example 446]	> 1000	< 20	> 1000	> 1000	–
C[C@@H]1CN(c2ccc(Nc3ncc4ccn(Cc5ccccc5N(C)S(C)(=O)=O)c4n3)cc2)CCN1 [Example 448, (R)—N-methyl-N-(2-((2-((4-(3-methylpiperazin-1-yl)phenyl)amino)-7H-pyrrolo[2,3-d]pyrimidin-7-yl)methyl)phenyl)methanesulfonamide]	< 20	< 20	< 20	–	–
C[C@H]1CN(c2ccc(Nc3ncc4ccn(Cc5ccccc5N(C)S(C)(=O)=O)c4n3)cc2)CCN1 [Example 467]	< 20	< 20	< 20	–	–
CN(C)C1CCN(c2ccc(Nc3ncc4ccn(Cc5ccccc5N(C)S(C)(=O)=O)c4n3)cc2)CC1 [Example 468]	< 20	< 20	< 20	–	–
CN(c1ccccc1Cn1ccc2cnc(Nc3ccc(OC4CNC4)cc3)nc21)S(C)(=O)=O [Example 515]	< 20	–	–	–	> 1
